Test results published in US20230002361A1, “2H-INDAZOLE DERIVATIVES AND THEIR USE IN THE TREATMENT OF DISEASE” (BIOGEN MA INC., priority 2019, published 2023).
Structures can show the parent of a compound that is named as a salt.

Legend:
[1] = target: T1, IRAK4 (Homo sapiens, UniProt Q9NWZ3); assay: IRAK4 MSD Biochemical Assay (1 mM ATP, 2 h); details: room temperature, read-out: IRAK4 MSD Biochemical Assay (1 mM ATP, 2 h) IC50
T1 construct: with 0.1 nM IRAK4, 1.6 μM of biotinylated peptide substrate and 10 μM ATP
T1 sequence (Q9NWZ3 1-460): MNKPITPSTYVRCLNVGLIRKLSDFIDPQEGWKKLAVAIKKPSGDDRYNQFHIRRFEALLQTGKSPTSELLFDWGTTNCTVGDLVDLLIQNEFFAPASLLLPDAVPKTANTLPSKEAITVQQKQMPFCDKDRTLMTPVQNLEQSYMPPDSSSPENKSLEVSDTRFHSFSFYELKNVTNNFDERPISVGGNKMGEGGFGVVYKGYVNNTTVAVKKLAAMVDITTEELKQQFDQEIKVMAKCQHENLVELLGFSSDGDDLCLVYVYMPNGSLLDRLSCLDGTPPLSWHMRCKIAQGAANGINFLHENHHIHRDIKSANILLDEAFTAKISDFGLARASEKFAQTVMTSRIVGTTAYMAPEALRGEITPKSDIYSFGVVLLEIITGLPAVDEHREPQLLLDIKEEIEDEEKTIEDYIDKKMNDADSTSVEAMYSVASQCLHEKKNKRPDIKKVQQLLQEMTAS
Outline: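 Run with 1 mM ATP and […] for 2 h, then quenched with EDTA, pH 8. The phosphorylated biotinylated peptide was captured on streptavidin plates and detected with anti-phospho-threonine antibody plus Sulfo-Tag secondary by MSD electrochemiluminescence.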

[2] = target: T2, human MDR1 transfected MDCK cells (Homo sapiens, UniProt P08183); assay: MDR1-MDCK assay (efflux ratio); type: in vitro ADME; details: 1 μM compound, 120 minutes incubation
T2 construct: host or cells: MDCK cells
Outline: (§1)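 Human MDR1-transfected MDCK monolayers, cultured 7 days on transwell inserts with TEER checked, were dosed with compound at 1 μM in HBSS-HEPES. Transport was measured in both A-B and B-A directions. Efflux ratio came from the directional permeabilities, with mass balance also calculated.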

[3] = target: T1, IRAK4; assay: IRAK4 MSD Biochemical Assay (10 μM ATP, 2 h); details: 0.1 nM IRAK4, 2 h, room temperature
Method: The 2-hour 10 μM ATP Biochemical Assay employs a MesoScale Detection (MSD) format. The kinase reaction is based on the IRAK4 phosphorylation of a biotin labeled peptide (IRAK1 activation loop sequence 360-389).
The kinase reaction in 30 μl is carried out in wells of a 384 well polypropylene assay plate, with 0.1 nM IRAK4, 1.6 μM of biotinylated peptide substrate and 10 μM ATP in 50 mM Hepes, pH 7.5, 60 mM NaCl, 5 mM MgCl2, 0.25 mM MnCl2, 2 mM DTT, 0.01% BSA, 0.01% BSA, and 1% DMSO (from compound DMSO stocks), for 2 hour at room temperature. The activity is quenched with 11 μl of 70 mM EDTA, pH 8.
To detect the phosphorylated biotinylated peptide substrate, 30 μl of the quenched reaction mixture is added to equivalent wells of a 384 well streptavidin coated MesoScale plate (Meso Scale Discovery #L21SA-1). After a 1 hour incubation of the plate for 1 hour at room temperature with gentle mixing, the plate wells are washed 3 times with 50 mM Tris, pH 7.5, 150 mM NaCl, 0.02% Tween-20.
A 25 μl volume of 1:500 anti-P-Threonine Rabbit polyclonal Antibody plus 1:500 Goat-anti-Rabbit Sulfo Tag Antibody (Meso Scale Discovery R32AB-1) in 50 mM Tris, pH 7.5, 150 mM NaCl, 0.02% Tween-20 plus 2% BSA is then added to each well. After a 1-hour incubation of the plate for 1 hour at room temperature with gentle mixing, the plate wells are washed, 3 times with 50 mM Tris, pH 7.5, 150 mM NaCl, 0.02% Tween-20. A 40 μl volume of 2×MSD Read Buffer (Meso Scale Discovery R92TC-1) is added to each well, and the plate is read immediately in an MSD Plate Reader (Meso Scale Discovery).

[4] = target: T3, MDR1 (P-gp) (Homo sapiens, UniProt P08183); assay: MDR1-MDCK assay (efflux ratio); type: in vitro ADME; details: human, MDCK-MDR1, 1 μM compound, 120 minutes incubation; read-out: MDR1-MDCK Efflux Ratio; (B-A/A-B)
T3 construct: host or cells: MDCK cells
Outline: as §1

T2 sequence (P08183 whole entry): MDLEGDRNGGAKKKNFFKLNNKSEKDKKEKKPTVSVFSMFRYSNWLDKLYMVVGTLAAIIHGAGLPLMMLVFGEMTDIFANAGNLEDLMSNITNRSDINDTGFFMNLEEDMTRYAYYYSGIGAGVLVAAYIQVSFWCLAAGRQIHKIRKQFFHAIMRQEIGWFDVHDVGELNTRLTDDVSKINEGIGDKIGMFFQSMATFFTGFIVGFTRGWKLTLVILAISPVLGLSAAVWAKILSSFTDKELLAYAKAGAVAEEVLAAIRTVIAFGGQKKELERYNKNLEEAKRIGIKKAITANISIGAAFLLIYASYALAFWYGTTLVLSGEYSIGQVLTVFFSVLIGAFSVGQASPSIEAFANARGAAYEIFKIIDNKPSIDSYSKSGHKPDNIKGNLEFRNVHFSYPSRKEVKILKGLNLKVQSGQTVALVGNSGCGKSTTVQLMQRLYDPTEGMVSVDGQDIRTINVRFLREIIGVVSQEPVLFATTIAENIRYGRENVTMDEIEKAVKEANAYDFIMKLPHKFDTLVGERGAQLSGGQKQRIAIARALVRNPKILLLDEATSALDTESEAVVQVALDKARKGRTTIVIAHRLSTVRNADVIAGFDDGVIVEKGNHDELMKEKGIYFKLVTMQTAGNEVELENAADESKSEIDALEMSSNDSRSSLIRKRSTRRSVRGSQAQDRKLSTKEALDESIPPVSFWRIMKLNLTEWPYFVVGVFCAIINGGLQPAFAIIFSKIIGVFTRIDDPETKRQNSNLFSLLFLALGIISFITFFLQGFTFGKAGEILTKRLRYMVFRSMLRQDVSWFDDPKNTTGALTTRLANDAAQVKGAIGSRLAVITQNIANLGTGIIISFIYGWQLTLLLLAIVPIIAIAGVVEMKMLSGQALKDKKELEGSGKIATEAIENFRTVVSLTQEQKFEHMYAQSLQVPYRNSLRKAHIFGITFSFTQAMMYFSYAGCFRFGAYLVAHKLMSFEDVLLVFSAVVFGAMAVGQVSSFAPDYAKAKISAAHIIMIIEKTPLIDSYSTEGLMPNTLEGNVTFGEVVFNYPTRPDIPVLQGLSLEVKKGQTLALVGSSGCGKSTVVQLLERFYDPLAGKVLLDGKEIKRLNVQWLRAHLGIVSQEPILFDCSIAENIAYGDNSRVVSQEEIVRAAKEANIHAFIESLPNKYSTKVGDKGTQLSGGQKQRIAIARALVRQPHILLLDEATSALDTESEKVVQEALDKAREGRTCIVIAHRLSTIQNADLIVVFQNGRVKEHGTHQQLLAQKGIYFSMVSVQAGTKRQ
T3 sequence (P08183 whole entry): as above

Row | Molecule | IC50 [1] [nM] | MDR1-MDCK Efflux Ratio; (B-A/A-B) [2] | IC50 [3] [nM] | efflux ratio at 120 min, 1 μM [4]
1 | COCCn1cc2cc(C(=O)Nc3cccc(C(F)F)n3)c(OC)cc2n1 [Example 10, N-(6-(difluoromethyl)pyridin-2-yl)-6-methoxy-2-(2-methoxyethyl)-2H-indazole-5-carboxamide] |  |  | 26 | 0.9
2 | COc1cc2nn(CCC(C)(C)OC)cc2cc1C(=O)Nc1cccc(C(F)F)n1 [Example 12, N-(6-(difluoromethyl)pyridin-2-yl)-6-methoxy-2-(3-methoxy-3-methylbutyl)-2H-indazole-5-carboxamide] | 5.5 |  | 2 | 1.4
3 | COc1cccc(NC(=O)c2cc(C)c3nn(CC4CCOC4)cc3c2)n1.O=C(O)C(F)(F)F (stereo not shown) [Example 9, N-(6-methoxypyridin-2-yl)-7-methyl-2-((tetrahydrofuran-3-yl)methyl)-2H-indazole-5-carboxamide Trifluoroacetate] | 2740 |  |  | 0.5
4 | CC(C)Oc1nc2nn(C3CCOC3)cc2cc1C(=O)Nc1cnn2cccnc12 (stereo not shown) [Example 37, 6-Isopropoxy-N-(pyrazolo[1,5-a]pyrimidin-3-yl)-2-(tetrahydrofuran-3-yl)-2H-pyrazolo[3,4-b]pyridine-5-carboxamide] | 6.4 |  |  | 2.2
5 | CC(C)Oc1nc2nn(CC3CCOC3)cc2cc1C(=O)Nc1ccn(C(F)F)n1 (stereo not shown) [Example 80, N-(1-(difluoromethyl)-1H-pyrazol-3-yl)-6-isopropoxy-2-((tetrahydrofuran-3-yl)methyl)-2H-pyrazolo[3,4-b]pyridine-5-carboxamide] | 6.4 |  |  | 3.1
6 | COCCCn1cc2cc(C(=O)Nc3cccc(C(F)F)n3)c(OC(C)C)cc2n1.Cl [Example 26, N-(6-(difluoromethyl)pyridin-2-yl)-6-isopropoxy-2-(3-methoxypropyl)-2H-indazole-5-carboxamide hydrochloride] | 0.9 |  |  | 0.7
7 | COc1cc2nn(CC3CCOC3)cc2cc1C(=O)Nc1cccc(C(F)F)n1 (stereo not shown) [Example 11, N-(6-(difluoromethyl)pyridin-2-yl)-6-methoxy-2-((tetrahydrofuran-3-yl)methyl)-2H-indazole-5-carboxamide] | 6.8 |  | 2 | 1.1
8 | COc1cnc2c(NC(=O)c3cc4cn([C@]56CC[C@](C)(C5)OC6)nc4cc3OC(C)C)cnn2c1 (single isomer, unassigned) [Example 136] | 1.4 | 2.3 |  | 
9 | 6-Ethoxy-N-(2-methoxypyridin-3-yl)-2-(1-methyl-2-oxabicyclo[2.1.1]hexan-4-yl)-2H-indazole-5-carboxamide tfifluoroacetate [Example 85] | 0.9 | 0.8 |  | 
10 | COc1ncccc1NC(=O)c1cc2cn(CC3CCOC3)nc2nc1OC(C)C (stereo not shown) [Example 78, 6-Isopropoxy-N-(2-methoxypyridin-3-yl)-2-((tetrahydrofuran-3-yl)methyl)-2H-pyrazolo[3,4-b]pyridine-5-carboxamide] | 1.2 |  |  | 1.4
11 | Cc1ccn2ncc(NC(=O)c3cc4cn(C5CCCOC5)nc4nc3OC3CCC3)c2n1 (single isomer, unassigned) [Example 134] | 1 | 2.1 |  | 

Continued by falling IC50 [1], values first:

Row | IC50 [1] [nM] | MDR1-MDCK Efflux Ratio; (B-A/A-B) [2] | IC50 [3] [nM] | efflux ratio at 120 min, 1 μM [4] | Molecule
12 | 0.7 |  |  | 1.9 | CCOc1cc2nn(CCC(C)(C)O)cc2cc1C(=O)Nc1cccc(C(F)F)n1 [Example 31, N-(6-(difluoromethyl)pyridin-2-yl)-6-ethoxy-2-(3-hydroxy-3-methylbutyl)-2H-indazole-5-carboxamide]
13 | 0.6 | 2.3 |  |  | COc1cnc2c(NC(=O)c3cc4cn([C@@]56CC[C@@](C)(C5)OC6)nc4cc3OC(C)C)cnn2c1 (single isomer, unassigned) [Example 135]
14 | 0.6 |  |  | 0.7 | COc1ncccc1NC(=O)c1cc2cn(C34COC(C)(C3)C4)nc2cc1OC(C)C [Example 90, 6-Isopropoxy-N-(2-methoxypyridin-3-yl)-2-(1-methyl-2-oxabicyclo[2.1.1]hexan-4-yl)-2H-indazole-5-carboxamide trifluoroacetate]
15 | 0.5 |  |  | 5.9 | Cc1cnc2c(NC(=O)c3cc4cn(C[C@@H]5CCOC5)nc4nc3OC3CCC3)cnn2c1 (single isomer, unassigned) [Example 123]
16 | 0.3 |  |  | 1.2 | Cc1cnc2c(NC(=O)c3cc4cn(C56CCC(C)(C5)OC6)nc4cc3OC(C)C)cnn2c1 (stereo not shown) [Example 99, 6-Isopropoxy-2-(1-methyl-2-oxabicyclo[2.2.1]heptan-4-yl)-N-(6-methylpyrazolo[1,5-a]pyrimidin-3-yl)-2H-indazole-5-carboxamide trifluoroacetate]
17 | 0.2 | 1.7 |  |  | CC12CCC(n3cc4cc(C(=O)Nc5cnn6cccnc56)c(OC5CCC5)cc4n3)(CO1)C2 (single isomer, unassigned) [Example 138]
18 | 0.2 |  |  | 0.6 | CC(C)Oc1cc2nn([C@@H]3CCCOC3)cc2cc1C(=O)Nc1cccc(C(F)F)n1 (single isomer, unassigned) [Example 43]
19 | 0.1 | 2.0 |  |  | Cc1cnc2c(NC(=O)c3cc4cn(C5CCCOC5)nc4nc3OC3CCC3)cnn2c1 (single isomer, unassigned) [Example 132]
